Measurements published in patent US11413278B2, “Compounds and methods for promoting stress resistance” (priority 2015, dated 2022).
Read-outs that look alike come from different tables or passages of the source.

Columns and labels:
[1] = system: WI-38 cells; assay: CdCl2 (cadmium) resistance assay; format: cell-based, human; settings: for fold induction at 10 µM: Homo sapiens, 12 h, normalized ATP measurement; for Assay 4: H2O2- & Cd-resistant / Assay 2: Cadmium-resistant: YES/NO; for Assay 2: Cadmium-resistant: * indicates partial
How it was run: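 Resistance to CdCl2 or MMS stress (12 h exposure) was scored in WI-38 fibroblasts pretreated with compound at 0.25–20 μM final, five doses, technical triplicates. MMS plates had compound added 24 h before MMS, after a shift to serum-free DMEM+2% BSA. Significance came from a global variance t-test over two independent runs.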

[2] = system: FOXO3; assay: FOXO3 siRNA knockdown: dependency for H2O2-resistance; format: cell-based, human
Experimental: For qPCR analysis, WI-38 cells were treated with small molecules (at 10 μM) (biological quadruplicates) for 24 hrs and processed for RNA isolation and reverse transcription (RT) with the Cells-to-Ct Kit (Life Technologies), following manufacturer's instructions. RT products were diluted with H2O and used for qPCR analysis on an ABI 7300 system (Life Technologies) (technical triplicates). Relative expression levels of target genes were normalized to the genes B2M, PPIA and GAPDH. To knock down the expression of FOXO3 or NRF2, WI-38 cells were transfected, using the RNAiMAX reagents (Life Technologies), with siRNA oligos (at 10 nM final concentration, 10 ml culture medium) for FOXO3 (Life Technologies) or NRF2 (Integrated DNA Technologies) on 10-cm petri dishes for 36 hrs, and then detached and aliquoted onto 96-well (for qPCR analysis) or 384-well plates (for H2O2-stress treatment). ˜24 hrs later, small molecules were introduced and incubated with cells for 24 hrs. Cells were then either processed with the Cells-to-Ct Kit to prepare RT products for qPCR analysis or subjected to H2O2 (700 μM) for 3 hrs and assayed for viability. The knockdown efficiency of FOXO3 or NRF2 was checked at 36 hrs post-transfection and at the end as well. […]
Applicants used siRNA to knock down FOXO3 expression by ˜70% in an attempt to identify whether the activation of these genes depends on activity of FOXO3 and/or NRF2. […] We used siRNA to knock down FOXO3 expression by ˜60% to 70% (FIG. 3; see data in Table 6). […] (Given the caveat that FOXO3 was not fully knocked down, partial dependency was scored when the H2O2-resistance capacity was reduced by at least 25% but less than 50% upon siRNA knockdown). At least for Gr-7A and Gr-7C, which are structurally related, the observed FOXO3-dependency for H2O2-resistance is consistent with their strong effects to induce FOXO3 target genes (Tables 1a-1f, Table 6, & Table 15), including SOD2 and GADD45A.

[3] = system: C. elegans; assay: C. elegans lifespan assays (liquid and plate); format: in vivo, Caenorhabditis elegans; settings: for ILS at 66 µM / ILS at 60 µM: Caenorhabditis elegans; for O = Life span- extending scores in worms: score scale 0 to 2, 4 to 6 independent trials; for M = Lifespan-extending scores in worms: summary score
[4] = system: WI-38 cells; settings: no H2O2 stress, 10 uM; negative control 0.41% ± 0.23%
Experimental: WI-38 cells were seeded on 384-well plates for 24 hrs and then incubated with small molecules for 24 hrs. […] Images were collected on an INCell Analyzer 2000 (GE) and analyzed with the Developer software.

[5] = Exp. 1, WI-38 cells, read-out: Exp. 1, under Cd2Cl2 stress treatment, at 10 uM (fold change)
[6] = Exp. 2, WI-38 cells, read-out: Exp. 2, under Cd2Cl2 stress treatment, at 10 uM (fold change)
[7] = score in summary of 38 core set hits
[8] = Assay 2(z), 1.0 × 10^9 bacteria/ml, wild type + FuDR (2012 July), read-out: Lifespan assay in liquid
[9] = Assay 3(aa), 2.5 × 10^9 bacteria/ml, wild type + FuDR, read-out: Lifespan assay in liquid
[10] = Assay 4(ab), 2.0 × 10^10 bacteria/ml, CF512 worms, no FuDR, read-out: Lifespan assay on plates
[11] = WI-38 cells, 10 μM, both stressors
[12] = 60 μM, in liquid, wild type, with FuDR, 1.0 × 10^9 bacteria/ml, read-out: relative change of mean lifespan vs control, Trial 1
[13] = 60 μM, in liquid, wild type, with FuDR, 2.5 × 10^9 bacteria/ml, read-out: relative change of mean lifespan vs control, Trial 2
[14] = 60 μM, on plate, CF512 temperature-sensitive sterile animals, without FuDR, 2.0 × 10^10 bacteria/ml, read-out: relative change of mean lifespan vs control, Trial 3

| Compound | fold induction at 10 µM [1, 5] | fold induction at 10 µM [1, 6] | A = Cadmium resistant [1, 7] | A = Cadmium resistant ([1]; summary score) | C = H2O2- & Cd-resistant ([1]; summary score) | I = FOXO3-dependency for H2O2-resistance ([2]; score) | I = FOXO3-dependency for H2O2-resistance ([2]; summary score) | ILS at 66 µM [3, 8] | ILS at 66 µM [3, 9] | ILS at 66 µM [3, 10] | O = Life span- extending scores in worms [3] | M = Lifespan-extending scores in worms [3] | Percentage of propidium iodide-positive dead cells (no H2O2 stress treatment), at 10 uM [4] | CdCl2-resistant [1] | H2O2- & CdCl2-resistant [1] | CdCl2-resistant ([1]; WI-38 cells, 10 μM) | H2O2- & CdCl2-resistant [1, 11] | Assay 4: H2O2- & Cd-resistant [1] | Assay 2: Cadmium-resistant [1] | ILS at 60 µM [3, 12] | other results |
| --- | --- | --- | --- | --- | --- | --- | --- | --- | --- | --- | --- | --- | --- | --- | --- | --- | --- | --- | --- | --- | --- |
| Nc1ccccc1S(=O)(=O)Nc1cccc2cccnc12 [Gr-3C] | 0.06 | 0.4 | 0 | 0 | 0 | 0 | 0 | 18.9% | 11.9% | 8% | 2 (2 for observed in more than 2 trials) | 2 (2 for observed in more than 2 trials) | 0.57% ± 0.24%, | – | – | – | – | – | – | – | ILS at 60 µM ([3]; read-out: relative change of mean lifespan vs control, Trial 1): 18.9%; ILS at 60 µM ([3]; read-out: relative change of mean lifespan vs control, Trial 2): 11.9%; ILS at 60 µM ([3]; read-out: relative change of mean lifespan vs control, Trial 3): 8%; Extension of C. elegans' lifespan (qualitative) ([3]; in at least 3 to 4 trials, group range ~10% to ~50%): could extend animal's lifespan |
| COc1ccc(C(=O)/C=C/c2ccc(F)cc2)c(OC)c1 [Gr-4A] | 1.98 | 1.66 | 1 | 1 | 1 | 0 | 0 | -21.4% | 1.2% | -0.1% | 0 | 0 | 0.39% ± 0.14%, | YES | YES | YES | YES | YES | YES | -21.4% | ILS at 60 µM [3, 13]: 1.2%; ILS at 60 µM [3, 14]: -0.1% |
| COc1ccc(C(=O)/C=C/c2ccccc2Br)c(OC)c1 [Gr-4B] | 2 | 1.52 | 1 | 1 | 1 | 0 | 0 | 8.1% | 14.5% | 10.7% | 1 (1 for lifespan extension observed in 2 trials) | 1 (1 for lifespan extension observed in 2 trials) | 0.36% ± 0.13%, | YES | YES | YES | YES | YES | YES | 8.1% | ILS at 60 µM [3, 13]: 14.5%; ILS at 60 µM [3, 14]: 10.7% |
